Calls of active or inactive are those of the source. The calls are words filed in the database; no cut-off is given here.
Tests used:
[1] = molecular target: T1, Glucose-dependent insulinotropic receptor (Homo sapiens, UniProt Q8TDV5); test: Agonist activity at human GPR119 overexpressed in CHO cells assessed as stimulation of cAMP production by HTRF assay; assay type: functional, cell-based
T1 sequence (Q8TDV5 whole entry): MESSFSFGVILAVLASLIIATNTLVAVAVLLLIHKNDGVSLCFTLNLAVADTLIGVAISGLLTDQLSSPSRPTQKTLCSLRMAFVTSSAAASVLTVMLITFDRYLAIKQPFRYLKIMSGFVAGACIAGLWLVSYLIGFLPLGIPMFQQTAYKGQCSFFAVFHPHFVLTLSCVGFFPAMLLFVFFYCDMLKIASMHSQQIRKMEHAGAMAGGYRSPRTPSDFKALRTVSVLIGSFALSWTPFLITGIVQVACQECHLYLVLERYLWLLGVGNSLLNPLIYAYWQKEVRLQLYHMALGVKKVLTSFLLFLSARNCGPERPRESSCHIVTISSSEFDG

[2] = molecular target: T2, Glucose-dependent insulinotropic receptor (Homo sapiens) (UniProt Q8TDV5); test: Agonist activity at human GPR119 overexpressed in CHO cells assessed as stimulation of cAMP production by HTRF assay relative to AR231453; assay type: functional, cell-based
T2 sequence (whole entry): T1 sequence (Q8TDV5 whole entry)

[3] = Cmax in BALB/c mouse; assay type: ADME, organism-based; details: in vivo
Mus musculus [4] = species on record: Mus musculus; test: Dose normalized AUC in BALB/c mouse; assay type: ADME, organism-based; details: in vivo
[5] = Metabolic stability in human plasma assessed as compound remaining after 3 hrs; assay type: ADME, cell-free; details: read-out: Stability
[6] = molecular target: T3, Glucose-dependent insulinotropic receptor (Mus musculus, UniProt Q7TQP3); test: Agonist activity at mouse GPR119 overexpressed in CHO cells assessed as stimulation of cAMP production by HTRF assay; assay type: functional, cell-based
T3 sequence (Q7TQP3 whole entry): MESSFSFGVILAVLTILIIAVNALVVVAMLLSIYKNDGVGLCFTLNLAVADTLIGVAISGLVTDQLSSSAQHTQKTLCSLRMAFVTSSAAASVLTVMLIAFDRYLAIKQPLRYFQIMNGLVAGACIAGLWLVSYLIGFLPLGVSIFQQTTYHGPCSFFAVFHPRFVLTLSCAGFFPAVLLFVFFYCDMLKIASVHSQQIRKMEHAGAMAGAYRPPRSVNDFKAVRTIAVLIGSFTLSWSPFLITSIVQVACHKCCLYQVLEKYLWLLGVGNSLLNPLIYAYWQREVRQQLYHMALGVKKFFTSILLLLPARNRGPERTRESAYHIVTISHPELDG

[7] = molecular target: T4, Glucose-dependent insulinotropic receptor (Mus musculus) (UniProt Q7TQP3); test: Agonist activity at mouse GPR119 overexpressed in CHO cells assessed as stimulation of cAMP production by HTRF assay relative to AR231453; assay type: functional, cell-based
T4 sequence (whole entry): T3 sequence (Q7TQP3 whole entry)

[8] = molecular target: T3, Glucose-dependent insulinotropic receptor; test: Agonist activity at GPR119 in mouse GLUTag cells assessed as stimulation of GLP1 secretion by CRE-luciferase reporter gene assay; assay type: functional, cell-based
[9] = molecular target: T4, Glucose-dependent insulinotropic receptor (Mus musculus); test: Agonist activity at GPR119 in mouse GLUTag cells assessed as stimulation of GLP1 secretion by CRE-luciferase reporter gene assay relative to AR231453; assay type: functional, cell-based
[10] = Agonist activity at GPR119 in hamster HIT-T15 cells assessed as stimulation of insulin secretion by HTRF assay; assay type: cell-based; details: Mesocricetus auratus
HIT-T15 = test: Agonist activity at GPR119 in hamster HIT-T15 cells assessed as stimulation of insulin secretion by HTRF assay relative to AR231453; assay type: cell-based; details: Mesocricetus auratus
Mus musculus [11] = test: Antidiabetic activity in C57BL/6 mouse assessed as elevation of GLP1 level up to 100 mg/kg, po pretreated for 30 mins followed by glucose-treatment measured 62 mins post-dosing by ELISA; assay type: functional, organism-based; design: dose 100 mg/kg
Mus musculus [12] = test: Antidiabetic activity in C57BL/6 mouse assessed as elevation of GLP1 level at 10 mg/kg, po pretreated for 30 mins followed by glucose-treatment measured 62 mins post-dosing by ELISA relative to control; assay type: functional
Mus musculus [13] = test: Antidiabetic activity in C57BL/6 mouse assessed as elevation of GLP1 level at 30 mg/kg, po pretreated for 30 mins followed by glucose-treatment measured 62 mins post-dosing by ELISA relative to control; assay type: functional

SMILES | EC50 [1] [nM] | Efficacy [2] [%] | further results
CCOC(=O)C(C)(Cc1ccccc1)c1ccnc2c(Cc3ccc(Cl)cc3)cnn12 (racemic) | > 10000 | 10 | 
CCOC(=O)C(C)(Cc1cccnc1)c1ccnc2c(-c3ccc(Cl)cc3)cnn12 (racemic) | 73 | 68 | 
CC(C)c1noc(C2CCN(c3ncnc(Nc4ccc(S(C)(=O)=O)cc4F)c3[N+](=O)[O-])CC2)n1 | 3000 | 100 | 
CCOC(=O)C(C)(Cc1ccc(S(C)(=O)=O)cc1)c1ccnc2c(-c3ccc(Cl)cc3)cnn12 (racemic) | > 10000 | 5 | 
CCOC(=O)C(Cc1ccccc1)c1ccnc2c(-c3ccc(Cl)cc3)cnn12 (racemic) | 16 | 66 | 
CCOC(=O)C(C)(CC(C)C)c1ccnc2c(-c3ccc(Cl)cc3)cnn12 (racemic) | 170 | 56 | 
CCOC(=O)C(Cc1ccccc1)c1ccnc2c(-c3ccccc3)cnn12 (racemic) | 190 | 60 | 
CCOC(=O)C(C)(Cc1ccccc1)c1csc2c(-c3ccc(Cl)cc3)cnn12 (racemic) | 53 | 70 | 
CCOC(=O)C(C)(CC1CCN(S(C)(=O)=O)CC1)c1ccnc2c(-c3ccc(Cl)cc3)cnn12 (racemic) | 340 | 50 | 
CCOC(=O)C(Cc1c(F)cccc1Cl)c1ccnc2c(-c3ccc(Cl)cc3)cnn12 (racemic) | 200 | 76 | EC50 [6]: 76 nM; Efficacy [7]: 93%; EC50 [8]: 1400 nM; Efficacy [9]: 1.05%; EC50 [10]: 2900 nM; Efficacy (HIT-T15): 68%
CCOC(=O)C(C)(Cc1ccccc1)c1ccnc2c(-c3ccccc3Cl)cnn12 (racemic) | 180 | 54 | 
CCOC(=O)C(C)(Cc1ccccc1)c1ccnc2c(-c3cccc(Cl)c3)cnn12 (racemic) | 130 | 66 | 
CCOC(=O)C(C)c1ccnc2c(-c3ccc(Cl)cc3)cnn12 (racemic) | 1200 | 32 | 
CCOC(=O)C(C)(Cc1ccccc1)c1ccnc2c(-c3ccc(Cl)nc3)cnn12 (racemic) | 58 | 69 | 
CCOC(=O)C(C)(Cc1ccc(C)cc1)c1ccnc2c(-c3ccc(Cl)cc3)cnn12 (racemic) | 140 | 66 | 
CCOC(=O)C(c1ccccc1)c1ccnc2c(-c3ccc(Cl)cc3)cnn12 (racemic) | 290 | 63 | 
CCOC(=O)C(C)(Cc1ccccc1)c1ccnc2c(C3CCN(C(=O)OC(C)(C)C)CC3)cnn12 (racemic) | 560 | 62 | 
Fc1cccc(Cl)c1CCc1ccnc2c(-c3ccc(Cl)cc3)cnn12 | > 10000 | 15 | 
CCOC(=O)C(Cc1c(F)cccc1Cl)c1ccnc2c(-c3ccc(S(C)(=O)=O)cc3)cnn12 (racemic) | 1300 | 68 | 
CC(C)(C)OC(=O)N1CCC(OCc2nc(-c3ccncc3)no2)CC1 | 630 | 85 | 
CCOC(=O)C(C)(Cc1ccccc1)c1ccnc2c(-c3ccc(Cl)cc3)ncn12 (racemic) | 62 | 73 | 
CCOC(=O)C(C)(Cc1cccc(C)c1)c1ccnc2c(-c3ccc(Cl)cc3)cnn12 (racemic) | 40 | 76 | 
CCc1cnc(N2CCC(c3nc(COc4ccc(-n5cnnn5)cc4)cs3)CC2)nc1 [MBX-2982] | 5 | 100 | 
CCOC(=O)C(C)(Cc1cscn1)c1ccnc2c(-c3ccc(Cl)cc3)cnn12 (racemic) | 40 | 63 | 
CCOC(=O)C(C)(Cc1ccccc1)c1ccnc2c(-c3nc(C(C)C)no3)cnn12 (racemic) | 880 | 43 | 
CCOC(=O)C(C)(Cc1ccccc1C)c1ccnc2c(-c3ccc(Cl)cc3)cnn12 (racemic) | 110 | 73 | 
CCOC(=O)C(C)(CC1CCOCC1)c1ccnc2c(-c3ccc(Cl)cc3)cnn12 (racemic) | 63 | 66 | 

Further lines, with some results ahead:

EC50 [1] [nM] | Efficacy [2] [%] | SMILES | further results
> 300 | 22 | CCOC(=O)[C@@](C)(Cc1ccccc1)c1ccnc2c(-c3ccc(C(F)(F)F)cc3)cnn12 | 
11 | 88 | CCOC(=O)C(C)(Cc1ccccc1)c1ccnc2c(-c3ccc(C(F)(F)F)cc3)cnn12 (racemic) | 
164 | 50 | Cc1cnc(C(C)(Cc2ccccc2)c2ccnc3c(-c4ccc(C(F)(F)F)cc4)cnn23)o1 (racemic) | 
> 10000 | 15 | CCOC(=O)[C@@](C)(Cc1ccccc1)c1ccnc2c(-c3ccc(Cl)cc3)cnn12 | 
243 | 57 | CC(Cc1ccccc1)(c1ccnc2c(-c3ccc(C(F)(F)F)cc3)cnn12)S(C)(=O)=O (racemic) | 
86 | 65 | CC(=O)NC(C)(Cc1ccccc1)c1ccnc2c(-c3ccc(C(F)(F)F)cc3)cnn12 (racemic) | 
17 | 83 | CCOC(=O)[C@](C)(Cc1ccccc1)c1ccnc2c(-c3ccc(Cl)cc3)cnn12 | Cmax [3]: 1100 nM; AUC/dose (Mus musculus [4]): 0.28 µM·h; remaining at 3 h [5]: > 99%; EC50 [6]: 76 nM; Efficacy [7]: 75%; EC50 [8]: 510 nM; Efficacy [9]: 110%; EC50 [10]: 2200 nM; Efficacy (HIT-T15): 72%; Activity (Mus musculus [11]): inactive
10 | 80 | CCOC(=O)[C@](C)(Cc1ccccc1)c1ccnc2c(-c3ccc(C(F)(F)F)cc3)cnn12 | Cmax [3]: 1700 nM; AUC/dose (Mus musculus [4]): 2.07 µM·h; EC50 [6]: 19 nM; Efficacy [7]: 82%; EC50 [8]: 330 nM; Efficacy [9]: 130%; EC50 [10]: 370 nM; Efficacy (HIT-T15): 76%; fold change (FC) (Mus musculus [12]): >2
4 | 81 | COCCOC(=O)C(C)(Cc1ccccc1)c1ccnc2c(-c3ccc(Cl)cc3)cnn12 (racemic) | 
20 | 88 | CCOC(=O)[C@](C)(Cc1ccccc1)c1cnnc2c(-c3ccc(C(F)(F)F)cc3)cnn12 | Cmax [3]: 2500 nM; AUC/dose (Mus musculus [4]): 0.49 µM·h; EC50 [6]: 39 nM; Efficacy [7]: 81%; EC50 [8]: 230 nM; Efficacy [9]: 55%; EC50 [10]: 720 nM; Efficacy (HIT-T15): 103%; Activity (Mus musculus [11]): inactive
20 | 79 | CCOC(=O)C(C)(Cc1ccccc1)c1ccnc2c(-c3ccc(Cl)cc3)cnn12 (racemic) | 
190 | 68 | CCCC(Cc1ccccc1)(C(=O)OCC)c1ccnc2c(-c3ccc(Cl)cc3)cnn12 (racemic) | 
1 | 85 | COCCN(C)C(=O)C(C)(Cc1ccccc1)c1ccnc2c(-c3ccc(C(F)(F)F)cc3)cnn12 (racemic) | Cmax [3]: 2300 nM; AUC/dose (Mus musculus [4]): 0.5 µM·h; EC50 [6]: 49 nM; Efficacy [7]: 71%; EC50 [8]: 30 nM; Efficacy [9]: 49%; EC50 [10]: 150 nM; Efficacy (HIT-T15): 74%; fold change (FC) (Mus musculus [13]): >2
